Like-named read-outs stand apart in the source and are kept apart here.
Tests used:
Aedes aegypti = test: Warm Body assay, mosquito landings on treated warm body; type: in vivo; details: for pest or weed control at 16 µg/mL / pest or weed control at 400 µg/mL / pest or weed control at 10000 µg/mL / pest or weed control at 1 % / pest or weed control at 0.04 % / pest or weed control at 0.0016 % / pest or weed control at 3.2 µg/mL / pest or weed control at 35.7 µg/mL / pest or weed control at 80 µg/mL / pest or weed control at 178 µg/mL / pest or weed control at 890 µg/mL / pest or weed control at 2000 µg/mL: Aedes aegypti; for pest or weed control at 16 µg/mL / pest or weed control at 400 µg/mL / pest or weed control at 10000 µg/mL / pest or weed control at 3.2 µg/mL / pest or weed control at 35.7 µg/mL / pest or weed control at 80 µg/mL / pest or weed control at 178 µg/mL / pest or weed control at 890 µg/mL / pest or weed control at 2000 µg/mL: read-out: Percentage of repellence of mosquitoes Aedes aegypti landing on the warm body; for pest or weed control at 1 % / pest or weed control at 0.04 %: read-out: repellence; for pest or weed control at 0.04 %: intermediate concentration of 0.04% (Table 3); for pest or weed control at 0.0016 %: read-out: reduce the number of mosquito landings; for pest or weed control at 3.2 µg/mL: 0.0032 mg/mL (Table 2); for pest or weed control at 35.7 µg/mL: 0.0357 mg/mL (Table 2); for pest or weed control at 80 µg/mL: 0.08 mg/mL (Table 2); for pest or weed control at 178 µg/mL: 0.178 mg/mL (Table 2); for pest or weed control at 890 µg/mL: 0.89 mg/mL (Table 2); for pest or weed control at 2000 µg/mL: 2 mg/mL (Table 2)
Description: The arthropod controlling effect according to the present invention is determined on mosquitoes using an adapted Warm Body assay as defined in Kröber T, Kessler S, Frei J, Bourquin M, Guerin PM. An in vitro assay for testing mosquito controlling compounds employing a warm body and carbon dioxide as a behavioral activator. J Am Mosq Control Assoc. 2010; 26: 381-386. Further information is provided in the accompanying examples
The controlling effect, repellence & spatial repellence, according to the present invention is determined by testing the Warm Body assay against the yellow fever mosquito, Aedes aegypti Rockefeller strain. […] Observations of controlling efficacy were made on host-seeking females of uniform age, 5 to 10 days old selected as mentioned in the publication mentioned hereinabove. Tested hungry females had access to 10% sugar solution but were not blood-fed. Further information is provided in the accompanying examples.
The published protocol has been adapted in not manually counting the landing mosquitoes but automatically using an automatic counting software, the switch from Anopheles gambiae to A. aegypti led to a decrease of mosquitoes' number placed in the tested cage due to the size difference (i.e. 30 mosquitoes instead of 50) and to an increase of lighting as A. aegypti is a diurnal mosquitoes (i.e. 150 lux instead of 4 lux). Further information is provided in the accompanying examples. […]
(§1) The controlling effect according to the present invention was assessed using an adapted Warm Body assay as defined in Kröber T, Kessler S, Frei J, Bourquin M, Guerin P M. 2010. J Am Mosq Control Assoc. 26: 381-386. In this in-vitro assay the number of mosquito landing on a warm body, simulating an attractive host treated with the tested stimuli, was measured in order to assess the repellence effect.
The published protocol has been adapted as the switch from Anopheles gambiae to Aedes aegypti led to a decrease of mosquitoes placed in the tested cage due to the size difference (i.e. 30 mosquitoes instead of 50) and to an increase of lighting since A. aegypti is a diurnal mosquitoes (i.e. 150 lux instead of 4 lux).
(§2) On the sandblasted glass Petri dish covering the warm body (28.3 cm^2), 100 μL of the compounds diluted at different concentrations in ethanol was applied. The number of mosquito landing on the warm body was counted for each stimulus and pure ethanol (solvent) as control.

Ixodes ricinus = test: Warm Plate assay, tick repellence; details: for pest or weed control at 400 µg/mL / pest or weed control at 2000 µg/mL / pest or weed control at 10000 µg/mL: Ixodes ricinus, read-out: Percentage of repellence of ticks Ixodes ricinus on the warm plate
Anopheles gambiae = test: Warm Body assay, mosquito landings on treated warm body; type: in vivo; details: Anopheles gambiae, read-out: Percentage of repellence of mosquitoes Anopheles gambiae landing on the warm body; for pest or weed control at 4470 µg/mL: 4.47 mg/mL (Table 4); for pest or weed control at 10000 µg/mL: 10 mg/mL (Table 4); for pest or weed control at 178 µg/mL: 0.178 mg/mL (Table 4); for pest or weed control at 267 µg/mL: 0.267 mg/mL (Table 4); for pest or weed control at 400 µg/mL: 0.4 mg/mL (Table 4)
Description: Anopheles gambiae is also a model organism as it is anthropophilic and transmits malaria.
as §1, §2

[1] = highest tested concentration, 1% (Table 3)
[2] = lowest concentration of 0.0016% (Table 3)

SMILES | pest or weed control at 16 µg/mL (Aedes aegypti; 0.016 mg/mL (Table 3)) [%] | pest or weed control at 400 µg/mL (Aedes aegypti; 0.4 mg/mL (Table 3)) [%] | pest or weed control at 10000 µg/mL (Aedes aegypti; 10 mg/mL (Table 3)) [%] | pest or weed control at 1 % (Aedes aegypti; [1]) [%] | pest or weed control at 0.04 % (Aedes aegypti) [%] | pest or weed control at 400 µg/mL (Ixodes ricinus) [%] | pest or weed control at 2000 µg/mL (Ixodes ricinus) [%] | pest or weed control at 10000 µg/mL (Ixodes ricinus) [%] | ticks repelled (Ixodes ricinus; concentration of 1% (Table 10)) | pest or weed control at 4470 µg/mL (Anopheles gambiae) [%] | pest or weed control at 10000 µg/mL (Anopheles gambiae) [%] | other results
C=CCOCc1ccc(O)c(OCC)c1 [compound 1479, 4-[(allyloxy)methyl]-2-ethoxyphenol] | 55 | 89 | 98 | > 90 | > 75 | 66.7 | 100 | 100 | repel all the ticks | – | – | pest or weed control at 0.0016 % (Aedes aegypti; [2]): > 50%; ticks repelled (Ixodes ricinus; concentrations of 0.2% and 1% (Table 10)): repelled all ticks; fraction of the tested ticks repelled (Ixodes ricinus; lowest tested concentration of 0.04% (Table 10)): ⅔
CCOc1cc(COC)ccc1O [compound 1271, 2-ethoxy-4-(methoxymethyl)phenol] | 29 | 84 | 96 | > 90 | > 75 | – | – | – | – | 95 | 92 | –
COc1ccc(C=O)c(OC(C)=O)c1 [compound 1472, (2-formyl-5-methoxyphenyl) acetate] | 31 | 81 | 100 | > 90 | > 75 | 0 | 54.5 | 100 | repel all the ticks | – | – | mosquito landing within the two minutes of experiments (Aedes aegypti; [1]): protect the attractive stimulus for any mosquito landing
COc1ccc(CC(=O)O)cc1OC [compound 1564, 2-(3,4-dimethoxyphenyl)acetic acid] | 24 | 69 | 82 | – | – | – | – | – | – | 97 | 97 | pest or weed control at 178 µg/mL (Anopheles gambiae): 42%; pest or weed control at 267 µg/mL (Anopheles gambiae): 58%; pest or weed control at 400 µg/mL (Anopheles gambiae): 9%
COc1ccc(C=O)c(OC)c1 [compound 1558, 2,4-dimethoxybenzaldehyde] | 86 | 89 | 86 | – | > 75 | 16.7 | 38.5 | 91.7 | – | – | – | pest or weed control at 0.0016 % (Aedes aegypti; [2]): > 50%
CC=Cc1ccc(OC)c(OC)c1 [compound 1195, 1,2-dimethoxy-4-prop-1-enylbenzene] | – | – | – | – | – | 46.2 | 76.9 | 100 | repel all the ticks | – | – | pest or weed control at 16 µg/mL (Aedes aegypti): 56%; pest or weed control at 400 µg/mL (Aedes aegypti): 69%; pest or weed control at 10000 µg/mL (Aedes aegypti): 100%; pest or weed control at 0.0016 % (Aedes aegypti): > 50%; pest or weed control at 1 % (Aedes aegypti): > 90%; mosquito landing within the two minutes of experiments (Aedes aegypti; [1]): protect the attractive stimulus for any mosquito landing
CCOCc1ccc(O)c(OCC)c1 [compound 1482, 2-ethoxy-4-(ethoxymethyl)phenol] | 31 | 82 | 96 | > 90 | > 75 | 30.8 | 66.7 | 100 | repel all the ticks | – | – | –
COc1ccc(C(C)=O)c(O)c1 [compound 1559, 2-hydroxy-4-methoxyacetophenone] | – | – | – | – | – | – | – | – | – | – | – | Percentage of repellence of mosquitoes Aedes aegypti landing on the warm body (Aedes aegypti; 0.016 mg/mL (Table 3)): 90%; Percentage of repellence of mosquitoes Aedes aegypti landing on the warm body (Aedes aegypti; 0.4 mg/mL (Table 3)): 98%; Percentage of repellence of mosquitoes Aedes aegypti landing on the warm body (Aedes aegypti; 10 mg/mL (Table 3)): 98%; Percentage of repellence of ticks Ixodes ricinus on the warm plate (Ixodes ricinus; 0.4 mg/mL (Table 10)): 13.3%; Percentage of repellence of ticks Ixodes ricinus on the warm plate (Ixodes ricinus; 2 mg/mL (Table 10)): 57.1%; Percentage of repellence of ticks Ixodes ricinus on the warm plate (Ixodes ricinus; 10 mg/mL (Table 10)): 91.7%
CC=Cc1cccc(OC)c1OC [compound 1125, 1,2-dimethoxy-3-prop-1-enylbenzene] | 32 | 78 | 92 | > 90 | > 75 | 25 | 36.4 | 91.7 | – | – | – | repellence of ticks Ixodes ricinus (Ixodes ricinus; 1% of stimulus applied (Table 9)): above 90%
COc1ccc(OC)c(OC)c1 [compound 1201, 1,2,4-trimethoxybenzene] | – | – | – | – | – | 0 | 23.1 | 100 | repel all the ticks | – | – | pest or weed control at 3.2 µg/mL (Aedes aegypti): 46%; pest or weed control at 16 µg/mL (Aedes aegypti; 0.016 mg/mL (Table 2)): 82%; pest or weed control at 35.7 µg/mL (Aedes aegypti): 58%; pest or weed control at 80 µg/mL (Aedes aegypti): 72%; pest or weed control at 178 µg/mL (Aedes aegypti): 63%; pest or weed control at 400 µg/mL (Aedes aegypti; 0.4 mg/mL (Table 2)): 79%; pest or weed control at 890 µg/mL (Aedes aegypti): 95%; pest or weed control at 2000 µg/mL (Aedes aegypti): 89%; pest or weed control at 10000 µg/mL (Aedes aegypti; 10 mg/mL (Table 2)): 96%; decrease the number of mosquito landings (Aedes aegypti; lowest doses tested (0.00032% & 0.0016%) (Table 2)): two folds
CC(C)c1ccc2c(c1)OCC(=O)CO2 [compound 1232, isopropyl-2H,4H-1,5-benzodioxepin-3-one, 7-] | 0 | 32 | 86 | – | – | – | – | – | – | 91 | 86 | pest or weed control at 178 µg/mL (Anopheles gambiae): 27%; pest or weed control at 267 µg/mL (Anopheles gambiae): 34%; pest or weed control at 400 µg/mL (Anopheles gambiae): 65%
CCCc1ccc2c(c1)OC(C(C)=O)O2 (stereo not shown) [compound 908, 1-(5-propyl-1,3-benzodioxol-2-yl)ethanone] | 10 | 37 | 85 | – | – | – | – | – | – | 74 | 84 | pest or weed control at 178 µg/mL (Anopheles gambiae): 61%; pest or weed control at 267 µg/mL (Anopheles gambiae): 95%; pest or weed control at 400 µg/mL (Anopheles gambiae): 51%
COc1cc(C(C)=O)ccc1O [compound 1468, 1-(4-hydroxy-3-methoxyphenyl)ethanone] | 64 | 74 | 90 | – | – | – | – | – | – | 59 | 79 | pest or weed control at 0.0016 % (Aedes aegypti; [2]): > 50%
CC=Cc1cc(OC)c(O)c(OC)c1 [compound 1127, 2,6-dimethoxy-4-prop-1-enylphenol] | – | – | – | – | – | – | – | – | – | – | – | pest or weed control at 3.2 µg/mL (Aedes aegypti): 17%; pest or weed control at 16 µg/mL (Aedes aegypti; 0.016 mg/mL (Table 2)): 1%; pest or weed control at 35.7 µg/mL (Aedes aegypti): 0%; pest or weed control at 80 µg/mL (Aedes aegypti): 0%; pest or weed control at 178 µg/mL (Aedes aegypti): 30%; pest or weed control at 400 µg/mL (Aedes aegypti; 0.4 mg/mL (Table 2)): 42%; pest or weed control at 890 µg/mL (Aedes aegypti): 59%; pest or weed control at 2000 µg/mL (Aedes aegypti): 100%; pest or weed control at 10000 µg/mL (Aedes aegypti; 10 mg/mL (Table 2)): 96%

Source: US20250113823A1, “Arthropod Control Compositions” (priority 2022, published 2025)
